Measured values as given in patent US20240287093A1, “HIGH ACTIVITY STING PROTEIN AGONIST” (ADLAI NORTYE BIOPHARMA CO., LTD., priority 2018, published 2024).

Experiments:
Format in all cases: cell-based
STING variants (HAQ) = target: T1, STING variants (HAQ) (Homo sapiens, UniProt Q86WV6, G230A/R293Q/R71H); assay: SEAP reporter assay in HEK-Blue ISG KO-STING cells transfected with STING HAQ variant (Method 2, 0.0625 ng vector); conditions: compound concentration 5 (mM as printed); 24 h; SEAP signal ratio to 0.5% DMSO
T1 construct: host or cells: HEK-Blue ISG KO-STING cells (Invivogen, hkb-kostg)
Excerpt: (§1) Example II: STING Variants (WT & HAQ) Activation by Compounds in HEK-Blue™ ISG KO-STING Cells (Method 2)
(§2) Activation of STING can be determined using a SEAP reporter assay in HEK-Blue™ ISG KO-STING cells (Invivogen, cat #hkb-kostg) transfected with plasmids expressing STING variants (WT & HAQ) (referred to WO2017/175147A1). STING variants (WT & HAQ) vector were constructed based on STING-232H vector (Origene, RC208418). GFP vector (VT2069) was bought from Youbio. The detailed protocol as follows: HEK-Blue™ ISG KO-STING cells were harvest and seeding into 96 well plate and the final cell number was 0.8×10^5 cells/well. Transfections were prepared using Lipofectamine 2000 (Invitrogen, Cat #11668-027) following the manufacturer's instructions (Lipo2000:DNA=1:10), 20 ul of transfection suspension containing 1 ng (WT variant) or 0.0625 ng (HAQ variant) STING vector was added to cell culture plate and incubated at 37° C., 5% CO2 for 24 h. After 24 hours incubation, compounds were added at proper concentration, the final DMSO concentration was 0.5%. After 24h incubation, the supernatant was collected to detect SEAP signal using Great EscAPe SEAP chemiluminescence KIT (Clontech, cat #631738) and cells were collected to detect cell viability using CellTiter-Glo Luminescent Cell Viability Assay(Promega, cat #G7573) following the manufacturer's instructions. The data were described by the ratio of the stimulating signal of compounds to 0.5% DMSO.

STING variants (WT) = target: T2, STING variants (WT) (Homo sapiens, UniProt Q86WV6); assay: SEAP reporter assay in HEK-Blue ISG KO-STING cells transfected with STING WT variant (Method 2, 1 ng vector); conditions: compound concentration 2.5 (mM as printed); 24 h; SEAP signal ratio to 0.5% DMSO
T2 construct: host or cells: HEK-Blue ISG KO-STING cells (Invivogen, hkb-kostg)
Excerpt: as §1, §2

STING = target: T3, STING (Homo sapiens, UniProt Q86WV6, G230A/H232R/R293Q/R71H); assay: IFNβ release from THP1 by STING activation (hIFNβ ELISA); conditions: THP1 cells, 24 h, IFN-β in supernatant; inactive = IFNβ not detected at the maximum concentration of compounds
T3 construct: THP1 was purchased from National Collection of Authenticated Cell Cultures (Cat #TCHu 57); host or cells: THP1
Method in brief: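 THP1 cells from log-phase culture, suspended at 2×10^6 cells/ml, were treated with an 8-point, 3-fold compound series (0.2% DMSO final) for 24 h at 37°C, 5% CO2. Secreted IFN-β in supernatant was quantified by human IFNβ ELISA, and EC50 was obtained by curve fitting.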

T3 sequence (Q86WV6 whole entry R71H/G230A/H232R/R293Q): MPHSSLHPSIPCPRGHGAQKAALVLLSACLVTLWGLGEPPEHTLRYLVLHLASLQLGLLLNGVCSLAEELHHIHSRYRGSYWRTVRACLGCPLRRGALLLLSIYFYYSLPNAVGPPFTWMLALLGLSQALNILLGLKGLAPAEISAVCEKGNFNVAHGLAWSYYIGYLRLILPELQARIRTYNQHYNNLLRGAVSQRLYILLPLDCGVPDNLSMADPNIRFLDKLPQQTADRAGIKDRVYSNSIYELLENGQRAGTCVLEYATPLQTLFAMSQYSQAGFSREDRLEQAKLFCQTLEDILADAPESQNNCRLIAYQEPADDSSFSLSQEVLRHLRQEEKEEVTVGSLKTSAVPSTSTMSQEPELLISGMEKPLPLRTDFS
T1 sequence (Q86WV6 whole entry R71H/G230A/R293Q): as the sequence (Q86WV6 whole entry R71H/G230A/H232R/R293Q) above, with R232H counted along it

| SMILES | Fold change related to DMSO control, HAQ (STING variants (HAQ)) [fold] | Fold change related to DMSO control, WT (STING variants (WT)) [fold] | hIFNβ ELISA (EC50, μM) (STING) | EC50 (STING) [µM] |
| --- | --- | --- | --- | --- |
| CCn1nc(C)cc1C(=O)Nc1nc2cc(C(N)=O)cc3c2n1C[C@@H](CO)O3 [Example 52, (S)-2-(1-ethyl-3-methyl-1H-pyrazole-5-carboxamido)-4-(hydroxymethyl)-3,4-dihydro-5-oxa-1,2a-diazaacenaphthylene-7-carboxamide] | 0.82 | 0.82 | inactive | – |
| CCn1nc(C)cc1C(=O)Nc1nc2cc(C(N)=O)cc3c2n1CC(F)(F)CO3 [Example 53, 1-(1-Ethyl-3-methyl-1H-pyrazole-5-carboxamido)-8,8-difluoro-8,9-dihydro-7H-6-oxa-2,9a-diazabenzo[cd]azulene-4-carboxamide] | 2.42 | 1.53 | – | > 22.7 |
| CCn1nc(C)c(F)c1C(=O)Nc1nc2cc(C(N)=O)cc3c2n1[C@@H](C(C)C)CO3 [Example 54, (S)-2-(1-Ethyl-4-fluoro-3-methyl-1H-pyrazole-5-carboxamido)-3-isopropyl-3,4-dihydro-5-oxa-1,2a-diazaacenaphthylene-7-carboxamide] | 7.79 | 2.29 | – | > 16.7 |
| CCn1nc(C)c(Cl)c1C(=O)Nc1nc2cc(C(N)=O)cc3c2n1[C@@H](C(C)C)CO3 [Example 55, (S)-2-(4-chloro-1-ethyl-3-methyl-1H-pyrazole-5-carboxamido)-3-isopropyl-3,4-dihydro-5-oxa-1,2a-diazaacenaphthylene-7-carboxamide] | 2.96 | 1.38 | inactive | – |
| CCn1nc(C)c(Br)c1C(=O)Nc1nc2cc(C(N)=O)cc3c2n1[C@@H](C(C)C)CO3 [Example 56, (S)-2-(4-Bromo-1-ethyl-3-methyl-1H-pyrazole-5-carboxamido)-3-isopropyl-3,4-dihydro-5-oxa-1,2a-diazaacenaphthylene-7-carboxamide] | 1.17 | 1.16 | inactive | – |
| CCn1nc(C)cc1C(=O)Nc1nc2cc(C(N)=O)cc3c2n1CCCO3 [Example 57, 1-(1-Ethyl-3-methyl-1H-pyrazole-5-carboxamido)-8,9-dihydro-7H-6-oxa-2,9a-diazabenzo[cd]azulene-4-carboxamide] | 3.59 | 1.34 | inactive | – |
| CCn1nc(C)cc1C(=O)Nc1nc2cc(C(N)=O)cc3c2n1[C@@H](CO)CO3 [Example 58, (S)-2-(1-ethyl-3-methyl-1H-pyrazole-5-carboxamido)-3-(hydroxymethyl)-3,4-dihydro-5-oxa-1,2a-diazaacenaphthylene-7-carboxamide] | 0.95 | 1.06 | – | > 50 |
| CCn1nc(C)cc1C(=O)Nc1nc2cc(C(N)=O)cc3c2n1CC1(COC1)CO3 [Example 59, 1-(1-Ethyl-3-methyl-1H-pyrazole-5-carboxamido)-7H,9H-6-oxa-2,9a-diazaspiro[benzo[cd]azulene-8,3′-oxetan]-1,2a,2a^1(5a),4-tetraene-4-carboxamide] | 1.13 | 1.22 | – | > 21.6 |
| CCn1nc(C)cc1C(=O)Nc1nc2cc(C(N)=O)cc3c2n1CCCN3C [Example 60, 1-(1-ethyl-3-methyl-1H-pyrazole-5-carboxamido)-6-methyl-6,7,8,9-tetrahydro-2,6,9a-triaza benzo[cd]azulene-4-carboxamide] | 73.46 | 6.55 | – | 15.8 |
| CCn1nc(C)cc1C(=O)Nc1nc2cc(C(N)=O)cc3c2n1CC1(CC1)CO3 [Example 61, 1-(1-ethyl-3-methyl-1H-pyrazole-5-carboxamido)-7H,9H-6-oxa-2,9a-diazaspiro[benzo[cd]azulene-8,1′-cyclopropan]-1,2a,3,5-tetraene-4-carboxamide] | 8.67 | 1.90 | – | > 16.7 |
| CCn1nc(C)cc1C(=O)Nc1nc2cc(C(N)=O)cc3c2n1[C@@H](C)CCO3 [Example 62, (S)-1-(1-ethyl-3-methyl-1H-pyrazole-5-carboxamido)-9-methyl-8,9-dihydro-7H-6-oxa-2,9a-diazabenzo[cd]azulene-4-carboxamide] | 13.40 | 1.84 | – | > 27.2 |
| CCn1nc(C)c(F)c1C(=O)Nc1nc2cc(C(N)=O)cc3c2n1[C@@H](C)CCO3 [Example 63, (S)-1-(1-ethyl-4-fluoro-3-methyl-1H-pyrazole-5-carboxamido)-9-methyl-8,9-dihydro-7H-6-oxa-2,9a-diazabenzo[cd]azulene-4-carboxamide] | 15.19 | 2.10 | – | > 16.7 |
| CCn1nc(C)c(F)c1C(=O)Nc1nc2cc(C(N)=O)cc3c2n1CC1(CC1)CO3 [Example 64, 1-(1-ethyl-4-fluoro-3-methyl-1H-pyrazole-5-carboxamido)-7,9-dihydrospiro[6-oxa-2,9a-diazabenzo[cd]azulene-8,1′-cyclopropane]-4-carboxamide] | 5.84 | 1.53 | – | > 12.8 |
| CCn1nc(C)c(F)c1C(=O)Nc1nc2cc(C(N)=O)cc3c2n1CCCO3 [Example 65, 1-(1-ethyl-4-fluoro-3-methyl-1H-pyrazole-5-carboxamido)-8,9-dihydro-7H-6-oxa-2,9a-diazabenzo[cd]azulene-4-carboxamide] | 8.89 | 1.63 | – | > 11.6 |
| CCn1nc(C)c(F)c1C(=O)Nc1nc2cc(C(N)=O)cc3c2n1CCCN3C [Example 66, 1-(1-Ethyl-4-fluoro-3-methyl-1H-pyrazole-5-carboxamido)-6-methyl-6,7,8,9-tetrahydro-2,6,9a-triazabenzo[cd]azulene-4-carboxamide] | 71.56 | 7.15 | – | 2.8 |
| CCn1nc(C)cc1C(=O)Nc1nc2cc(C(N)=O)cc3c2n1CC(C)(C)CN3 [Example 67, 1-(1-Ethyl-3-methyl-1H-pyrazole-5-carboxamido)-8,8-dimethyl-6,7,8,9-tetrahydro-2,6,9a-tri azabenzo[cd]azulene-4-carboxamide] | 49.72 | 7.90 | – | 14.9 |
| CCn1nc(C)cc1C(=O)Nc1nc2cc(C(N)=O)cc3c2n1CC(C)(C)CN3C [Example 68, 1-(1-Ethyl-3-methyl-1H-pyrazole-5-carboxamido)-6,8,8-trimethyl-6,7,8,9-tetrahydro-2,6,9a-triazabenzo[cd]azulene-4-carboxamide] | 67.23 | 9.81 | – | 4.7 |
| CCN1CC(C)(C)Cn2c(NC(=O)c3cc(C)nn3CC)nc3cc(C(N)=O)cc1c32 [Example 69, 6-Ethyl-1-(1-ethyl-3-methyl-1H-pyrazole-5-carboxamido)-8,8-dimethyl-6,7,8,9-tetrahydro-2,6,9a-triazabenzo[cd]azulene-4-carboxamide] | 74.83 | 7.69 | – | 7.6 |
| CCn1nc(C)cc1C(=O)Nc1nc2cc(C(N)=O)cc3c2n1C[C@@H](C)CO3 [Example 70, (R)-1-(1-Ethyl-3-methyl-1H-pyrazole-5-carboxamido)-8-methyl-8,9-dihydro-7H-6-oxa-2,9a-diazabenzo[cd]azulene-4-carboxamide] | 10.57 | 2.37 | – | > 50 |
| CCn1nc(C)cc1C(=O)Nc1nc2cc(C(N)=O)cc3c2n1C[C@H](C)CO3 [Example 71, (S)-1-(1-Ethyl-3-methyl-1H-pyrazole-5-carboxamido)-8-methyl-8,9-dihydro-7H-6-oxa-2,9a-diazabenzo[cd]azulene-4-carboxamide] | 18.10 | 2.97 | – | > 17.6 |
